Data published in patent US9169240B2, “Ketone linked benzothiazole inhibitors of endothelial lipase” (BRISTOL-MYERS SQUIBB COMPANY, priority 2012, dated 2015).

Target: Endothelial lipase (EL) (Homo sapiens (Human), UniProt Q9Y5X9)
Assay: Endothelial lipase (EL) activity assay with fluorescent substrate A10070 in DMPG vesicles
Format: biochemical
Protocol: Endothelial lipase activity was measured using a fluorescent substrate, A10070, (Invitrogen, CA) doped into an artificial vesicle containing DMPG (Avanti Polar Lipids) as the excipient. Vesicles were prepared by combining 285 μL of 1 mM DMPG in a 1:1 mixture of MeOH and CHCl3 with 15 μL of 1 mM A10070 in a 1:1 mixture of MeOH and CHCl3. The mixture was dried under nitrogen and resuspended in 150 μL of 50 mM HEPES pH 8.0 buffer containing 100 mM NaCl and 0.2 mM EDTA. The sample was allowed to sit at rt for 15 min and then was sonicated 3×4 mins on ice with a Branson Sonicator using duty cycle 1. This preparation provides vesicles with a mole fraction of 0.05 for the FRET substrate.
The enzymatic assay was measured using white, opaque 96-well half area plates. Each well contained 60 μL of assay buffer (50 mM HEPES pH 8.0, 50 mM NaCl and 1 mM CaCl2) and 2 ul of a DMSO solution containing compound of interest. Conditioned media obtained from HT-1080 cells, which were transformed by RAGE technology (Athersys) to overexpress endogenous EL, was added and the reaction was allowed to incubate for 20 min at 37° C. with gentle agitation. The reaction was started by the addition of 20 μL of a 1:4 dilution of vesicles. The final total reaction volume was 100 μL. The reaction rates were measured on a Gemini plate reader with an excitation wavelength of 488 nm and an emission of 530 nm. Readings were taken every 20 seconds for 10 min with agitation between each reading. The slope of the linear portion of the readout was used to calculate the rate of the reaction.

Endothelial lipase (EL), sequence (Q9Y5X9 21-500): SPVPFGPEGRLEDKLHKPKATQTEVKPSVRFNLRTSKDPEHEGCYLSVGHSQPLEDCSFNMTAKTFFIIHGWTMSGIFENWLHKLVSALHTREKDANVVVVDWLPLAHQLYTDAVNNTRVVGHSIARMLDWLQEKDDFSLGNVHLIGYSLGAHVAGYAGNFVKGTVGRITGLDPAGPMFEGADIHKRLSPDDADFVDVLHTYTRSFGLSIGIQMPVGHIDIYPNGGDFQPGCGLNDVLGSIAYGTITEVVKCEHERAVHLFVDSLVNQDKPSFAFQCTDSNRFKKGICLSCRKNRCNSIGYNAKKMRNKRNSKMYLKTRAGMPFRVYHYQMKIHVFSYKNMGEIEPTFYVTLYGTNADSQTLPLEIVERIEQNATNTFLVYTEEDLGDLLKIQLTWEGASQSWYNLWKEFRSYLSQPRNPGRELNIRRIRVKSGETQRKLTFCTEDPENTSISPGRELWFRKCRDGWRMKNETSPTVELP

| Structure (SMILES) | IC50 [nM] |
| --- | --- |
| O=C(c1nnc(CC2CCNC2=O)o1)c1nc2ccc(-c3ccccc3)cc2s1 (centres unmarked) [Example 1] | < 10 |
| O=C(c1nnc(CC2CCNC2=O)o1)c1nc2ccc(-c3ccccc3)cc2s1 (centres unmarked) [Example 3, 3-((5-(6-phenylbenzo[d]thiazole-2-carbonyl)-1,3,4-oxadiazol-2-yl)methyl)pyrrolidin-2-one] | < 10 |
| O=C(c1nnc(CCc2ncc[nH]2)o1)c1nc2ccc(-c3ccccc3)cc2s1 [Example 8, (5-(2-(1H-imidazol-2-yl)ethyl)-1,3,4-oxadiazol-2-yl)(6-phenylbenzo[d]thiazol-2-yl)methanone] | 11 |
| O=C(c1nnc(CCc2ncc(-c3ccccc3)o2)o1)c1nc2ccc(-c3ccccc3)cc2s1 [Example 9, (6-phenylbenzo[d]thiazol-2-yl)(5-(2-(5-phenyloxazol-2-yl)ethyl)-1,3,4-oxadiazol-2-yl)methanone] | < 10 |
| NS(=O)(=O)Cc1nnc(C(=O)c2nc3c(F)cc(-c4ccccc4)cc3s2)o1 [Example 12, (5-(4-fluoro-6-phenylbenzo[d]thiazole-2-carbonyl)-1,3,4-oxadiazol-2-yl)methanesulfonamide] | < 10 |
| O=C(c1nnc(CCc2nc3ccccc3[nH]2)o1)c1nc2c(F)cc(-c3ccccc3)cc2s1 [Example 14, (5-(2-(1H-benzo[d]imidazol-2-yl)ethyl)-1,3,4-oxadiazol-2-yl)(4-fluoro-6-phenylbenzo[d]thiazol-2-yl)methanone] | < 10 |
| CC(C)(C)OC(=O)N1CCC(CCc2nnc(C(=O)c3nc4ccc(-c5ccc(F)cc5)cc4s3)o2)CC1 [Example 15, tert-butyl 4-(2-(5-(6-(4-fluorophenyl)benzo[d]thiazole-2-carbonyl)-1,3,4-oxadiazol-2-yl)ethyl)piperidine-1-carboxylate] | < 10 |
| CC(C)(C)OC(=O)N1CCC(c2nnc(C(=O)c3nc4ccc(-c5ccc(F)cc5)cc4s3)o2)CC1 [Example 18, tert-butyl 4-(5-(6-(4-fluorophenyl)benzo[d]thiazole-2-carbonyl)-1,3,4-oxadiazol-2-yl)piperidine-1-carboxylate] | < 10 |
| O=C(c1nnc(C2CCN(Cc3ccc(OC(F)(F)F)cc3)CC2)o1)c1nc2ccc(-c3ccccc3)cc2s1 [Example 23, (6-Phenylbenzo[d]thiazol-2-yl)(5-(1-(4-(trifluoromethoxy)benzyl)piperidin-4-yl)-1,3,4-oxadiazol-2-yl)methanone] | < 10 |
| CN(Cc1nnc(C(=O)c2nc3ccc(-c4ccccc4)cc3s2)o1)S(N)(=O)=O [Example 27, N-methyl-N-((5-((6-phenyl-1,3-benzothiazol-2-yl)carbonyl)-1,3,4-oxadiazol-2-yl)methyl)sulfamide] | 23 |
| NS(=O)(=O)NCCc1nnc(C(=O)c2nc3ccc(-c4ccccc4)cc3s2)o1 [Example 28, N-(2-(5-((6-phenyl-1,3-benzothiazol-2-yl)carbonyl)-1,3,4-oxadiazol-2-yl)ethyl)sulfamide] | 36 |
| CC1(Cc2nnc(C(=O)c3nc4ccc(-c5ccccc5)cc4s3)o2)NC(=O)NC1=O (centres unmarked) [Example 32, 5-methyl-5-((5-(6-phenylbenzo[d]thiazole-2-carbonyl)-1,3,4-oxadiazol-2-yl)methyl)-imidazol-idine-2,4-dione] | < 10 |
| CC1(Cc2nnc(C(=O)c3nc4ccc(-c5ccccc5)cc4s3)o2)NC(=O)NC1=O (centres unmarked) [Example 33, 5-methyl-5-((5-(6-phenylbenzo[d]thiazole-2-carbonyl)-1,3,4-oxadiazol-2-yl)methyl)-imidazol-idine-2,4-dione] | 21 |
| CC1(Cc2nnc(C(=O)c3nc4ccc(-c5ccccc5)cc4s3)o2)NC(=O)NC1=O (centres unmarked) [Example 34, 5-methyl-5-((5-(6-phenylbenzo[d]thiazole-2-carbonyl)-1,3,4-oxadiazol-2-yl)methyl)-imidazol-idine-2,4-dione] | < 10 |
| CC1(Cc2nnc(C(=O)c3nc4ccc(-c5ccc(F)cc5)cc4s3)o2)NC(=O)NC1=O (centres unmarked) [Example 35, 5-((5-(6-(4-fluoro-phenyl)benzo[d]thiazole-2-carbonyl)-1,3,4-oxadiazol-2-yl)methyl)-5-methyl-imidazolidine-2,4-dione] | < 10 |
| CC1(Cc2nnc(C(=O)c3nc4ccc(-c5ccccc5)cc4s3)o2)NC(=O)N(CC(F)(F)F)C1=O (centres unmarked) [Example 38, 5-methyl-5-((5-(6-phenylbenzo[d]thiazole-2-carbonyl)-1,3,4-oxadiazol-2-yl)methyl)-3-(2,2,2-trifluoro-ethyl)imidazol-idine-2,4-dione] | 11 |

Further lines, results first:

| IC50 [nM] | Structure (SMILES) |
| --- | --- |
| 140 | O=C(c1nnc(NC2CCCNC2=O)o1)c1nc2ccc(-c3ccccc3)cc2s1 (single isomer, unassigned) [Example 77, 3-((5-(6-phenylbenzo[d]thiazole-2-carbonyl)-1,3,4-oxadiazol-2-yl)amino)piperidin-2-one] |
| 27 | O=C(c1nnc(NC2CCCNC2=O)o1)c1nc2ccc(-c3ccccc3)cc2s1 (single isomer, unassigned) [Example 78, 3-((5-(6-phenylbenzo[d]thiazole-2-carbonyl)-1,3,4-oxadiazol-2-yl)amino)piperidin-2-one] |
| 99 | COC(=O)N[C@H]1CC[C@H](c2nnc(C(=O)c3nc4ccc(-c5ccccc5)cc4s3)o2)CC1 [Example 6, methyl ((1R,4R)-4-(5-(6-phenylbenzo[d]thiazole-2-carbonyl)-1,3,4-oxadiazol-2-yl)cyclohexyl)carbamate] |
| < 10 | O=C(c1nnc(C2CCN(c3ncccn3)CC2)o1)c1nc2ccc(-c3ccccc3)cc2s1 [Example 7, (6-phenylbenzo[d]thiazol-2-yl)(5-(1-(pyrimidin-2-yl)piperidin-4-yl)-1,3,4-oxadiazol-2-yl)methanone] |
| < 10 | O=C(c1nnc(C2CCS(=O)(=O)N2)o1)c1nc2ccc(-c3ccccc3)cc2s1 (centres unmarked) [Example 11, (5-(1,1-dioxidoisothiazolidin-3-yl)-1,3,4-oxadiazol-2-yl)(6-phenylbenzo[d]thiazol-2-yl)methanone] |
| < 10 | O=C(c1nnc(C2CCN(c3ccc(C(F)(F)F)cc3)CC2)o1)c1nc2ccc(-c3ccccc3)cc2s1 [Example 13, (6-phenylbenzo[d]thiazol-2-yl)(5-(1-(4-(trifluoromethyl)phenyl)piperidin-4-yl)-1,3,4-oxadiazol-2-yl)methanone] |
| 31 | CC(C)(C)OC(=O)N[C@H]1CC[C@H](c2nnc(C(=O)c3nc4ccc(-c5ccccc5)cc4s3)o2)CC1 [Example 16, tert-butyl ((1r,4r)-4-(5-(6-phenylbenzo[d]thiazole-2-carbonyl)-1,3,4-oxadiazol-2-yl)cyclohexyl)carbamate] |
| < 10 | O=C(c1nnc(C2CCN(Cc3ccc(F)cc3)CC2)o1)c1nc2ccc(-c3ccccc3)cc2s1 [Example 17, (5-(1-(4-fluorobenzyl)piperidin-4-yl)-1,3,4-oxadiazol-2-yl)(6-phenylbenzo[d]thiazol-2-yl)methanone] |
| 13 | O=C(c1nnc(CCC2CCN(CC3CC3)CC2)o1)c1nc2ccc(-c3ccccc3)cc2s1 [Example 19, (5-(2-(1-(cyclopropylmethyl)piperidin-4-yl)ethyl)-1,3,4-oxadiazol-2-yl)(6-phenylbenzo[d]thiazol-2-yl)methanone] |
| < 10 | CC(C)(C)OC(=O)N1CCC(c2nnc(C(=O)c3nc4ccc(-c5ccccc5)cc4s3)o2)CC1 [Example 20, tert-butyl 4-(5-(6-phenylbenzo[d]thiazole-2-carbonyl)-1,3,4-oxadiazol-2-yl)piperidine-1-carboxylate] |
